Results from PMC11266321 (EJNMMI Radiopharmacy and Chemistry, 2024).
Several values for one entry are separate records, joined by “and”; a condition that tells them apart may be missing. Identical values can stand only once.

Test: Tissue distribution of radioactivity in mice
Type: in vivo, mouse
Conditions: mean ± SD n = 4
Experimental: [^11C]MMP (8.1 MBq/17 pmol) was injected intravenously into 8-week-old male ddY mice (37.8–42.4 g). The tracer-injected mice were housed individually in filter-paper-lined animal-rearing cages until the time of euthanasia. Mice were euthanized by cervical dislocation at 1, 5, 15, 30, 60, and 90 min after injection (n = 4 each). Blood was collected by heart puncture, and the tissues were harvested. Radioactivity excreted into urine was recovered from the cage floor and by cystocentesis from the urinary bladder. The samples were measured for ^11C radioactivity with an auto-gamma counter (Hidex-AMG, Turku, Finland) and weighed. Tissue uptake of ^11C was expressed as the percentage of injected dose per organ (%ID/organ) or the percentage of injected dose per gram of tissue (%ID/g). The tissue distribution data were extrapolated to an adult male phantom using the %kg/g method (Blau [1975]). The radiation absorbed dose and effective dose for human adults were estimated using OLINDA/EXM software (Vanderbilt University, Nashville, TN) (Stabin et al. [2005]). Effective dose was estimated using the risk-weighting factor of ICRP Publication 103 (ICRP [2007]).

With `CC(C)NC(C)Cc1ccc([11CH3])cc1` (centres unmarked) [[^11C]MMP, N-isopropyl-4-[^11C]methylamphetamine] the “Injected dose/g tissue (%), Blood” value (1 min after i.v. injection) was 1.40 ± 0.24 %ID/g, the “Injected dose/g tissue (%), Bone” value (1 min after i.v. injection) was 2.21 ± 0.54 %ID/g and the “Injected dose/g tissue (%), Brain” value (1 min after i.v. injection) was 5.75 ± 0.42 %ID/g. For the same compound, the “Injected dose/g tissue (%), Heart” value (1 min after i.v. injection) was 8.23 ± 1.30 %ID/g, the “Injected dose/g tissue (%), Kidney” value (1 min after i.v. injection) was 12.93 ± 7.10 %ID/g and the “Injected dose/g tissue (%), Large intestine” value (1 min after i.v. injection) was 1.92 ± 0.95 %ID/g. The “Injected dose/g tissue (%), Liver” value (1 min after i.v. injection) was 1.56 ± 0.87 %ID/g, the “Injected dose/g tissue (%), Lung” value (1 min after i.v. injection) was 28 %ID/g and 27.53 ± 4.66 %ID/g and the “Injected dose/g tissue (%), Muscle” value (1 min after i.v. injection) was 1.77 ± 0.86 %ID/g. For the same compound, the “Injected dose/g tissue (%), Pancreas” value (1 min after i.v. injection) was 3.96 ± 1.02 %ID/g, the “Injected dose/g tissue (%), Small intestine” value (1 min after i.v. injection) was 1.49 ± 0.84 %ID/g and the “Injected dose/g tissue (%), Spleen” value (1 min after i.v. injection) was 1.46 ± 0.42 %ID/g. For the same compound, the “Injected dose/g tissue (%), Stomach” value (1 min after i.v. injection) was 2.06 ± 1.30 %ID/g, the “Injected dose/g tissue (%), Testis” value (1 min after i.v. injection) was 0.96 ± 0.24 %ID/g and the “Injected dose/organ (%), Bladder” value (1 min after i.v. injection) was 0.07 ± 0.05 %ID/organ. The “Injected dose/organ (%), Bladder + urine” value (1 min after i.v. injection) was 0.07 ± 0.05 %ID/organ, the “Injected dose/organ (%), Brain” value (1 min after i.v. injection) was 2.28 ± 0.25 %ID/organ and the “Injected dose/organ (%), Heart” value (1 min after i.v. injection) was 1.56 ± 0.27 %ID/organ. For the same compound, the “Injected dose/organ (%), Kidney” value (1 min after i.v. injection) was 7.4 %ID/organ and 7.44 ± 4.00 %ID/organ, the “Injected dose/organ (%), Large intestine” value (1 min after i.v. injection) was 2.47 ± 1.19 %ID/organ and the “Injected dose/organ (%), Liver” value (1 min after i.v. injection) was 2.63 ± 1.23 %ID/organ. The “Injected dose/organ (%), Lung” value (1 min after i.v. injection) was 5.54 ± 0.95 %ID/organ, the “Injected dose/organ (%), Pancreas” value (1 min after i.v. injection) was 0.76 ± 0.23 %ID/organ and the “Injected dose/organ (%), Small intestine” value (1 min after i.v. injection) was 2.74 ± 1.46 %ID/organ. For the same compound, the “Injected dose/organ (%), Spleen” value (1 min after i.v. injection) was 0.17 ± 0.07 %ID/organ, the “Injected dose/organ (%), Stomach” value (1 min after i.v. injection) was 1.59 ± 1.06 %ID/organ and the “Injected dose/organ (%), Testis” value (1 min after i.v. injection) was 0.24 ± 0.03 %ID/organ. For the same compound, the “Injected dose/organ (%), Urine” value (1 min after i.v. injection) was 0.00 ± 0.00 %ID/organ, the “Injected dose/g tissue (%), Blood” value (5 min after i.v. injection) was 1.10 ± 0.14 %ID/g and the “Injected dose/g tissue (%), Bone” value (5 min after i.v. injection) was 2.20 ± 0.30 %ID/g. For the same compound, the “Injected dose/g tissue (%), Brain” value (5 min after i.v. injection) was 6.87 ± 0.62 %ID/g, the “Injected dose/g tissue (%), Heart” value (5 min after i.v. injection) was 3.53 ± 0.21 %ID/g and the “Injected dose/g tissue (%), Kidney” value (5 min after i.v. injection) was 16.26 ± 1.85 %ID/g. The “Injected dose/g tissue (%), Large intestine” value (5 min after i.v. injection) was 2.36 ± 0.41 %ID/g, the “Injected dose/g tissue (%), Liver” value (5 min after i.v. injection) was 4.30 ± 0.84 %ID/g and the “Injected dose/g tissue (%), Lung” value (5 min after i.v. injection) was 21.20 ± 1.81 %ID/g. For the same compound, the “Injected dose/g tissue (%), Muscle” value (5 min after i.v. injection) was 2.14 ± 0.14 %ID/g, the “Injected dose/g tissue (%), Pancreas” value (5 min after i.v. injection) was 8.21 ± 0.70 %ID/g and the “Injected dose/g tissue (%), Small intestine” value (5 min after i.v. injection) was 3.65 ± 0.21 %ID/g. The “Injected dose/g tissue (%), Spleen” value (5 min after i.v. injection) was 5.09 ± 0.59 %ID/g, the “Injected dose/g tissue (%), Stomach” value (5 min after i.v. injection) was 3.24 ± 1.94 %ID/g and the “Injected dose/g tissue (%), Testis” value (5 min after i.v. injection) was 1.26 ± 0.25 %ID/g. For the same compound, the “Injected dose/organ (%), Bladder” value (5 min after i.v. injection) was 0.09 ± 0.03 %ID/organ, the “Injected dose/organ (%), Bladder + urine” value (5 min after i.v. injection) was 3.51 ± 1.80 %ID/organ and the “Injected dose/organ (%), Brain” value (5 min after i.v. injection) was 2.68 ± 0.33 %ID/organ. The “Injected dose/organ (%), Heart” value (5 min after i.v. injection) was 0.63 ± 0.05 %ID/organ, the “Injected dose/organ (%), Kidney” value (5 min after i.v. injection) was 9.5 %ID/organ and 9.54 ± 0.98 %ID/organ and the “Injected dose/organ (%), Large intestine” value (5 min after i.v. injection) was 2.7 %ID/organ and 2.68 ± 0.45 %ID/organ. The “Injected dose/organ (%), Liver” value (5 min after i.v. injection) was 9.53 ± 2.41 %ID/organ, the “Injected dose/organ (%), Lung” value (5 min after i.v. injection) was 3.21 ± 0.65 %ID/organ and the “Injected dose/organ (%), Pancreas” value (5 min after i.v. injection) was 1.70 ± 0.23 %ID/organ. For the same compound, the “Injected dose/organ (%), Small intestine” value (5 min after i.v. injection) was 6.8 %ID/organ and 6.77 ± 0.37 %ID/organ, the “Injected dose/organ (%), Spleen” value (5 min after i.v. injection) was 0.57 ± 0.05 %ID/organ and the “Injected dose/organ (%), Stomach” value (5 min after i.v. injection) was 1.88 ± 0.90 %ID/organ. The “Injected dose/organ (%), Testis” value (5 min after i.v. injection) was 0.32 ± 0.06 %ID/organ, the “Injected dose/organ (%), Urine” value (5 min after i.v. injection) was 3.42 ± 1.82 %ID/organ and the “Injected dose/g tissue (%), Blood” value (15 min after i.v. injection) was 0.72 ± 0.23 %ID/g. For the same compound, the “Injected dose/g tissue (%), Bone” value (15 min after i.v. injection) was 1.29 ± 0.18 %ID/g, the “Injected dose/g tissue (%), Brain” value (15 min after i.v. injection) was 4.83 ± 0.21 %ID/g and the “Injected dose/g tissue (%), Heart” value (15 min after i.v. injection) was 1.93 ± 0.18 %ID/g. For the same compound, the “Injected dose/g tissue (%), Kidney” value (15 min after i.v. injection) was 11.36 ± 1.39 %ID/g, the “Injected dose/g tissue (%), Large intestine” value (15 min after i.v. injection) was 1.59 ± 0.62 %ID/g and the “Injected dose/g tissue (%), Liver” value (15 min after i.v. injection) was 6.07 ± 1.10 %ID/g. The “Injected dose/g tissue (%), Lung” value (15 min after i.v. injection) was 7.97 ± 0.89 %ID/g, the “Injected dose/g tissue (%), Muscle” value (15 min after i.v. injection) was 1.22 ± 0.10 %ID/g and the “Injected dose/g tissue (%), Pancreas” value (15 min after i.v. injection) was 8.55 ± 1.10 %ID/g. For the same compound, the “Injected dose/g tissue (%), Small intestine” value (15 min after i.v. injection) was 3.29 ± 0.83 %ID/g, the “Injected dose/g tissue (%), Spleen” value (15 min after i.v. injection) was 4.45 ± 0.69 %ID/g and the “Injected dose/g tissue (%), Stomach” value (15 min after i.v. injection) was 4.51 ± 1.35 %ID/g. For the same compound, the “Injected dose/g tissue (%), Testis” value (15 min after i.v. injection) was 1.63 ± 0.16 %ID/g, the “Injected dose/organ (%), Bladder” value (15 min after i.v. injection) was 0.60 ± 0.32 %ID/organ and the “Injected dose/organ (%), Bladder + urine” value (15 min after i.v. injection) was 13.64 ± 2.31 %ID/organ. For the same compound, the “Injected dose/organ (%), Brain” value (15 min after i.v. injection) was 2.12 ± 0.06 %ID/organ, the “Injected dose/organ (%), Heart” value (15 min after i.v. injection) was 0.33 ± 0.02 %ID/organ and the “Injected dose/organ (%), Kidney” value (15 min after i.v. injection) was 7.47 ± 1.09 %ID/organ. For the same compound, the “Injected dose/organ (%), Large intestine” value (15 min after i.v. injection) was 2.13 ± 1.04 %ID/organ, the “Injected dose/organ (%), Liver” value (15 min after i.v. injection) was 15 %ID/organ and 14.98 ± 2.48 %ID/organ and the “Injected dose/organ (%), Lung” value (15 min after i.v. injection) was 1.47 ± 0.10 %ID/organ. For the same compound, the “Injected dose/organ (%), Pancreas” value (15 min after i.v. injection) was 1.74 ± 0.24 %ID/organ, the “Injected dose/organ (%), Small intestine” value (15 min after i.v. injection) was 6.13 ± 1.74 %ID/organ and the “Injected dose/organ (%), Spleen” value (15 min after i.v. injection) was 0.64 ± 0.12 %ID/organ. The “Injected dose/organ (%), Stomach” value (15 min after i.v. injection) was 2.46 ± 0.69 %ID/organ, the “Injected dose/organ (%), Testis” value (15 min after i.v. injection) was 0.45 ± 0.05 %ID/organ and the “Injected dose/organ (%), Urine” value (15 min after i.v. injection) was 13.03 ± 2.51 %ID/organ. For the same compound, the “Injected dose/g tissue (%), Blood” value (30 min after i.v. injection) was 0.62 ± 0.21 %ID/g, the “Injected dose/g tissue (%), Bone” value (30 min after i.v. injection) was 0.76 ± 0.26 %ID/g and the “Injected dose/g tissue (%), Brain” value (30 min after i.v. injection) was 2.63 ± 0.22 %ID/g. For the same compound, the “Injected dose/g tissue (%), Heart” value (30 min after i.v. injection) was 1.16 ± 0.22 %ID/g, the “Injected dose/g tissue (%), Kidney” value (30 min after i.v. injection) was 7.08 ± 1.91 %ID/g and the “Injected dose/g tissue (%), Large intestine” value (30 min after i.v. injection) was 1.22 ± 0.63 %ID/g. For the same compound, the “Injected dose/g tissue (%), Liver” value (30 min after i.v. injection) was 5.46 ± 0.97 %ID/g, the “Injected dose/g tissue (%), Lung” value (30 min after i.v. injection) was 3.68 ± 0.50 %ID/g and the “Injected dose/g tissue (%), Muscle” value (30 min after i.v. injection) was 0.78 ± 0.17 %ID/g. The “Injected dose/g tissue (%), Pancreas” value (30 min after i.v. injection) was 4.58 ± 0.52 %ID/g, the “Injected dose/g tissue (%), Small intestine” value (30 min after i.v. injection) was 2.14 ± 0.67 %ID/g and the “Injected dose/g tissue (%), Spleen” value (30 min after i.v. injection) was 2.48 ± 0.45 %ID/g. For the same compound, the “Injected dose/g tissue (%), Stomach” value (30 min after i.v. injection) was 2.69 ± 0.26 %ID/g and the “Injected dose/g tissue (%), Testis” value (30 min after i.v. injection) was 1.69 ± 0.36 %ID/g.
